Assay results: patent US20050261130A1, “Novel surfactants and formulations” (Monsanto Technology LLC, priority 2000, published 2005)

Legend:
Type in all cases: physicochemical
[1] = Compatibility of surfactant with potassium glyphosate concentrate (no phase separation, 50° C., 1 week); conditions: 50° C. oven 1 week; for Compatible w/37% a.e. K + glyphosate at 12 wt % loading: 37 wt. % a.e. potassium glyphosate/12 wt. % surfactant; for Compatible w/45% a.e. K + glyphosate at 15% wt loading: 45 wt. % a.e. potassium glyphosate/15 wt. % surfactant
Description: For the 31 wt. % a.e. potassium glyphosate/10 wt. % surfactant compositions: 1.550 g of 40 wt. % a.e. aqueous glyphosate potassium salt solution was weighed into a vial. To the same vial, 0.200 g of surfactant was added. Enough deionized water was then added to the contents to bring the total weight to 2.000g. The mixture was stirred for 2 hours at room temperature and checked to see if a solution had been formed. If a solution was present, the test vial was allowed to stand at room temperature overnight. If a solution was still present, the test vial was placed in a 50° C. oven for 1 week. If no phase separation had occurred in one week, the surfactant being tested was considered “compatible.” All of the surfactants identified in Table 4 were compatible at the 31% a.e. potassium/10 wt. % surfactant loading.
For the 37 wt. % a.e. potassium glyphosate/12 wt. % surfactant compositions: 41.1 g of 45 wt. % a.e. aqueous glyphosate potassium salt was weighed to a container. To the same container was added 6.0 g of surfactant and 2.9 g deionized water for a total weight of 50.0 g. The remainder of the protocol is the same as that described for the 31 wt. % samples. The surfactants identified in Table 4 that were compatible at the 37% a.e. potassium/12 wt. % surfactant loading are indicated in Table 5 below.
For the 40 wt. % a.e. potassium glyphosate/10 wt. % surfactant compositions: 1.79 g of 45 wt. % a.e. aqueous glyphosate potassium salt was weighed into a vial. To the same vial was added 0.2 g of surfactant. The remainder of the protocol is the same as that described for the 31 wt. % samples. The surfactants identified in Table 4 that were compatible at the 40% a.e. potassium/10 wt. % surfactant loading are indicated in Table 5 below.
For the 45 wt. % a.e. potassium glyphosate/15 wt. % surfactant compositions: 1.100 g of solid mono potassium glyphosate was weighed into a vial. To the same vial was added 0.300 g surfactant. Enough deionized water was added to the vial to bring the final weight to 2.000 g. The remainder of the protocol is the same as that described for the 31 wt. % samples. The surfactants identified in Table 4 that were compatible at the 45% a.e. potassium/[…] are indicated in Table 5 below.

[2] = Compatibility of surfactant with diammonium glyphosate concentrate (no phase separation, 50° C., 1 week); conditions: 50° C. oven 1 week; for Compatible w/31% a.e. diammonium glyphosate at 10 wt % loading: 31 wt. % a.e. diammonium glyphosate/10 wt. % surfactant; for Compatible w/37% a.e. diammonium glyphosate at 12 wt % loading: 37 wt. % a.e. diammonium glyphosate/12 wt. % surfactant
Description: For the 31 wt. % a.e. NH4^+glyphosate/10 wt. % surfactant compositions: • 1.48 g of 41.9 wt % a.e. aqueous glyphosate diammonium (1.7 eq) salt was weighed into a vial. To the same vial was added 0.2 g of surfactant and 0.32 g deionized water. The remainder of the protocol is the same as that described for the 31 wt % potassium glyphosate samples. The surfactants identified in Table 4 that were compatible at the 31% a.e. ammonium/10 wt. % surfactant loading are indicated in Table 5 below.
For the 37 wt. % a.e. NH4^+glyphosate/12 wt. % surfactant compositions: • 1.76 g of 41.9 wt % a.e. aqueous glyphosate diammonium (1.7 eq) salt was weighed into a vial. To the same vial was added […]. The remainder of the protocol is the same as that described for the 31 wt % potassium glyphosate samples. The surfactants identified in Table 4 that were compatible at the 37% a.e. ammonium/12 wt. % surfactant loading are indicated in Table 5 below.

[3] = Specific gravity (Mettler DA-300 Density/Specific Gravity Meter); conditions: 20/15.6° C.; 30% a.e. by weight glyphosate monobasic salt solutions
Description: Specific gravities are measured using a Mettler DA-300 Density/Specific Gravity Meter.

[4] = Birefringence test for anisotropic aggregates on wax-coated slide; set-up: key: Y is yes; N is no; conditions: surfactant in IPA glyphosate formulation
Description: To determine whether a herbicidal formulation comprising glyphosate or a salt or ester thereof and a surfactant forms anisotropic aggregates on the foliage of a plant comprising the surfactant, the following birefringence testing procedure may be utilized.
First, a wax-coated slide is prepared. A preferred wax for preparing the slide is a blend of carnauba wax and beeswax in a weight/weight ratio of approximately 10:1, respectively. A clear wax mixture is prepared consisting of about 5% carnauba wax and about 0.5% beeswax in isopropanol, and is maintained at a temperature of approximately 82° C. The end of a glass 2.4 cm×7.2 cm microscope slide is immersed perpendicularly in the wax mixture to a depth of approximately one-third of the length of the slide. After about 10 to 15 seconds, the slide is very slowly and steadily withdrawn from the wax mixture and allowed to cool, leaving a wax layer deposited on both faces of the slide.
Visual examination of the slide can give a preliminary indication of the thickness and uniformity of the wax coating. If imperfections are evident the slide is rejected. […] Further evaluation of the acceptability of the wax-coated slide for the test is done by examining the slide under a microscope. The slide is selected for use in the test if, on microscopic examination using a 4.9× objective, the wax coating is uniformly thick and there is uniform density of wax particles across the slide.
The next stage in the procedure is to conduct the test.
The following instrumentation, or equivalent, items are required or useful for the test procedure: • Nikon SMZ-10A stereoscopic microscope equipped for polarized light observation, photomicrography, and video observation and recording. • 3CCD MTI camera. • Diagnostic Instruments 150 IL-PS power supply. • Sony Trinitron color video monitor, model PVM-1353MD. • Mitsubishi time-lapse video cassette recorder, model HS-S5600. • Hewlett Packard Pavillion 7270 computer, with Windows 95 and Image-Pro • Plus version 2.0 electronic imaging program installed. • Hewlett Packard Deskjet 870Cse printer.
For testing, a wax-coated slide, prepared and selected as described above, is positioned on the microscope stage, with the system set to provide transmitted light, both straight and polarized. A 1 microliter drop of the sample to be tested is applied to the wax surface using a thoroughly cleaned 1 microliter Hamilton syringe. This and subsequent operations are followed through the microscope at 4.9× objective. Duplicate or triplicate tests are done for each composition. Numerous tests can be conducted simultaneously on a single slide. Progression of change in the microscopic appearance of the sample is observed through the microscope and recorded at designated time intervals. Useful intervals are 1 minute, 10 minutes, 2 hours and greater than 24 hours after application of the drop to the wax surface. Observations can also be made at intermediate times to capture possible significant transitions occurring at such times.
The temperature of the wax layer tends to increase with prolonged exposure to the microscope light. […] However, in some cases temperature does affect the outcome of the test and in such cases it is preferred to illuminate the sample only for the short periods necessary to make observations, so that the temperature of the wax layer remains close to ambient temperature.
At dark field (polarized light) the wax layer is observed for birefringence, and at light field the character of the drop surface is observed, at each time interval. The following records are preferably made: • birefringence (y/n); • time of initial appearance of birefringence; • character of the birefringence; • appearance of drop surface as composition “dries”; • degree of spread of the drop; • effects of temperature (warming of the slide) if any; • other noticeable changes.

Row | Compound | Compatible w/37% a.e. K + glyphosate at 12 wt % loading [1] | Compatible w/31% a.e. diammonium glyphosate at 10 wt % loading [2] | AA (anisotropic aggregate) [4] | also measured
1 | CCCCCCCCNC(CO)(CO)CO [EEE] | Yes | Yes |  | Compatible w/45% a.e. K + glyphosate at 15% wt loading [1]: No; Compatible w/37% a.e. diammonium glyphosate at 12 wt % loading [2]: Yes
2 | CCCCCCCCCCCCCCCCOCCOCCOCCOCCOCCOCCOCCOCCOCCOCCOCCOCCOCCOCCOCCOCCOCCOCCOCCOCCN(C)CC(O)CO (centres unmarked) [QQQ] | No | No |  | Compatible w/37% a.e. diammonium glyphosate at 12 wt % loading [2]: No
3 | CCCN.O=C(O)CNCP(=O)(O)O |  |  |  | Specific Gravity [3]: 1.1429
4 | CCCCC(CC)COP(=O)(O)O (centres unmarked) [2-ethylhexyl phosphate] |  |  | N | 
5 | CCCCCCCCCCCCCCCCOCCOCCOCCOCCOCCOCCOCCOCCOCCOCCNCCCN [KKK] | Probably |  |  | Compatible w/45% a.e. K + glyphosate at 15% wt loading [1]: Yes, but minor
6 | CCN.O=C(O)CNCP(=O)(O)O |  |  |  | Specific Gravity [3]: 1.1599
7 | CCCCCCCC(=O)O [caprylic acid] |  |  | N | 
8 | CCCCCCCCCCCC[N+](C)(C)C [VVV] |  | Yes |  | Compatible w/37% a.e. diammonium glyphosate at 12 wt % loading [2]: No
9 | CCCCCCCCCCCCCCCCN(C)CCN(C)CCCCCCCCCCCCCCCC |  |  | Y | 
10 | ammonium |  |  |  | Specific Gravity [3]: 1.1814
11 | CN [methylammonium] |  |  |  | Specific Gravity [3]: 1.1667
12 | NCCO.O=C(O)CNCP(=O)(O)O [monoethanolammonium (MEA)] |  |  |  | Specific Gravity [3]: 1.2357
13 | C[S+](C)C.O=C(O)CNCP(=O)([O-])O [trimethylsulfonium (TMS)] |  |  |  | Specific Gravity [3]: 1.1904
14 | CCCCCCCCCCCCOS(=O)(=O)[O-].[Na+] [sodium lauryl sulfate] |  |  | Y | 
15 | CCCCCCCCCCCCOCCOCCOCCOCCN(C)C [HHH] |  | No |  | 
16 | CCCCCCCCCCCCCCCCCCN(C)CCOCCOCCOCCOCCOCCOCCOC [Surfactant C, α-methyl-ω-(N-methyloctadecylamino)poly(oxy-1,2-ethanediyl)] |  | No |  | 
17 | CCCCCCCCCCN(C)CCCN(C)CCCCCCCCCC [Gemini 10-3-10] |  |  | Y | 

Row | Compound | Compatible w/37% a.e. K + glyphosate at 12 wt % loading [1] | Compatible w/31% a.e. diammonium glyphosate at 10 wt % loading [2] | AA (anisotropic aggregate) [4] | also measured
18 | CCCCCCCC/C=C\CCCCCCCC(=O)O [oleic acid] |  |  | Y | 
19 | CCCCCCCCCCN(C)C [drawing 146 w=10] |  |  | N | 
20 | CCCCCCCCCCCCCCCCCC(=O)O [stearic acid] |  |  | Y | 
21 | CCCCCCCCCCCCCCCCOCCOCCOCCOCCOCCOCCOCCOCCOCCOCCN(C)CCN(C)C [MMM] | Yes | Yes |  | 
22 | laureth-3 phosphate |  |  | N | 
23 | CCCCCCCCCCCCN(C)CC(O)C(O)C(O)C(O)CO (centres unmarked) [RR] | Yes | Yes |  | Compatible w/45% a.e. K + glyphosate at 15% wt loading [1]: Yes; Compatible w/37% a.e. diammonium glyphosate at 12 wt % loading [2]: Yes
24 | CCCCCCCCCCCCCCCCCC[N+](C)(C)CC(O)C(O)C(O)C(O)CO (centres unmarked) [YY] | No | Yes |  | Compatible w/37% a.e. diammonium glyphosate at 12 wt % loading [2]: No
25 | CCCCCCCCCCCCCCCCOCCOCCOCCOCCOCCOCCOCCOCCOCCOCCOCCOCCOCCOCCOCCOCCOCCOCCOCCOCCN(C)CC(O)C(O)C(O)C(O)CO (centres unmarked) [PPP] | No | No |  | Compatible w/37% a.e. diammonium glyphosate at 12 wt % loading [2]: No
26 | CCCCCCCCCCCCNC(CO)(CO)CO [FFF] |  | No |  | Compatible w/37% a.e. diammonium glyphosate at 12 wt % loading [2]: No
27 | CN(CCCCCCCCCCCCN(C)CC(O)C(O)C(O)C(O)CO)CC(O)C(O)C(O)C(O)CO (centres unmarked) [Surfactant ZZ, 1,12 methylaminoglucitoldodecane] | Yes |  |  | Compatible w/45% a.e. K + glyphosate at 15% wt loading [1]: Yes
28 | CCCCCCCCCCCCCCCC(=O)O [palmitic acid] |  |  | Y | 
29 | CCCCCCCCCCCC[N+](C)(C)CC(O)C(O)C(O)C(O)CO (centres unmarked) [XX] | No | Yes |  | Compatible w/37% a.e. diammonium glyphosate at 12 wt % loading [2]: No
30 | CCCCCCCCN(CCCN(CCCCCCCC)CC(O)C(O)C(O)C(O)CO)CC(O)C(O)C(O)C(O)CO (centres unmarked) [Surfactant CCC, 1,8 hexylaminoglucitol octane] | Yes |  |  | Compatible w/45% a.e. K + glyphosate at 15% wt loading [1]: Yes
31 | CC(C)N.O=C(O)CNCP(=O)(O)O [isopropylammonium (IPA)] |  |  |  | Specific Gravity [3]: 1.1554
32 | CCCCCCCCCCCCCCCCOCCOCCOCCOCCOCCOCCOCCOCCOCCOCCN(C)CC(O)C(O)C(O)C(O)CO (centres unmarked) [OOO] | Probably | No |  | Compatible w/37% a.e. diammonium glyphosate at 12 wt % loading [2]: Yes
33 | CCCCCCCCCCN(C)CCCCN(C)CCCCCCCCCC [Gemini 10-4-10] |  |  | Y | 
34 | CCCCCCCCCCN(C)CCN(C)CCCCCCCCCC [Gemini 10-2-10] |  |  | Y | 
